pIC50: −log10 of the molar value.

One assay has as its target RBP4 (Homo sapiens (Human), UniProt P02753). In words: Scintillation proximity (SPA) RBP4 binding assay. The following applies: 10 nM 3H-Retinol, 50 nM biotinylated RBP4. As to the method:
Scintillation Proximity RBP4 Binding Assay
Untagged human RBP4 purified from urine of tubular proteinuria patients was purchased from Fitzgerald Industries International. It was biotinylated using the EZ-Link Sulfo-NHS-LC-Biotinylation kit from Pierce following the manufacturer's recommendations. Binding experiments were performed in 96-well plates (OptiPlate, PerkinElmer) in a final assay volume of 100 μl per well in SPA buffer (IX PBS, pH 7.4, 1 mM EDTA, 0.1% BSA, 0.5% CHAPS). The reaction mix contained 10 nM ^3H-Retinol (48.7 Ci/mmol; PerkinElmer), 0.3 mg/well Streptavidin-PVT beads, 50 nM biotinylated RBP4 and a test compound. Nonspecific binding was determined in the presence of 20 μM of unlabeled retinol. The reaction mix was assembled in the dark under dim red light. The plates were sealed with clear tape (TopSeal-A: 96-well microplate, PerkinElmer), wrapped in the aluminum foil, and allowed to equilibrate 6 hours at room temperature followed by overnight incubation at +4° C. Radiocounts were measured using a TopCount NXT counter (Packard Instrument Company).

In another assay the target is RBP4-TTR interaction (Homo sapiens (Human), UniProt P02753). As to the kind of experiment: TR-FRET (HTRF) assay for retinol-induced RBP4-TTR interaction. Format: biochemical. The following applies: in the presence of 1 μM retinol; read-out: HTRF assay for antagonists of RBP4-TTR interaction: IC50. From the text:
TR-FRET assay for retinol-induced RBP4-TTR interaction Binding of a desired RBP4 antagonist displaces retinol and induces hindrance for RBP4-TTR interaction resulting in the decreased FRET signal (FIG. 7). Bacterially expressed MBP-RBP4 and untagged TTR were used in this assay. […] Following cell lysis, recombinant RBP4 was purified from the soluble fraction using the ACTA FPLC system (GE Healthcare) equipped with the 5-ml the MBP Trap HP column. Human untagged TTR was purchased from Calbiochem. Untagged TTR was labeled directly with Eu^3+ Cryptate-NHS using the HTRF Cryptate Labeling kit from CisBio following the manufacturer's recommendations. HTRF assay was performed in white low volume 384 well plates (Greiner-Bio) in a final assay volume of 16 μl per well. The reaction buffer contained 10 mM Tris-HCl pH 7.5, 1 mM DTT, 0.05% NP-40, 0.05% Prionex, 6% glycerol, and 400 mM KF. […] Titration of test compounds in this assay was conducted in the presence of 1 μM retinol. All reactions were assembled in the dark under dim red light and incubated overnight at +4° C. wrapped in aluminum foil. TR-FRET signal was measured in the SpectraMax M5e Multimode Plate Reader (Molecular Device). […] The TR-FRET signal was expressed as the ratio of fluorescence intensity: Flu665/Flu620×10,000.

Turning to `CS(=O)(=O)N1CCc2[nH]nc(C(=O)N3CCC(c4cccc(F)c4C(F)(F)F)CC3)c2C1` [Compound 64, (4-(3-Fluoro-2-(trifluoromethyl)phenyl)piperidin-1-yl)(5-(methylsulfonyl)-4,5,6,7-tetrahydro-1H-pyrazolo[4,3-c]pyridin-3-yl)methanone], the pIC50 on RBP4 was 8.27; on RBP4-TTR interaction, 7.69.

Turning to `O=C(c1n[nH]c2c1CCN(C1COC1)C2)N1CCC(c2ccc(F)c(F)c2C(F)(F)F)CC1` [Compound 117, (4-(3,4-Difluoro-2-(trifluoromethyl)phenyl)piperidin-1-yl)(6-(oxetan-3-yl)-4,5,6,7-tetrahydro-1H-pyrazolo[3,4-c]pyridin-3-yl)methanone], the pIC50 on RBP4 is 8.26; on RBP4-TTR interaction, 7.42.

For `CC(C)(C)CN1CCc2[nH]nc(C(=O)N3CCC(c4ccc(F)c(F)c4C(F)(F)F)CC3)c2C1` [Compound 90, (4-(3,4-difluoro-2-(trifluoromethyl)phenyl)piperidin-1-yl)(5-neopentyl-4,5,6,7-tetrahydro-1H-pyrazolo[4,3-c]pyridin-3-yl)methanone methanone], the results for the pIC50 on RBP4 and on RBP4-TTR interaction were 7.84 and 7.37, respectively.

Turning to `CCC(=O)N1Cc2[nH]nc(C(=O)N3CCC(c4ccc(F)c(F)c4C(F)(F)F)CC3)c2C1` [Compound 84, 1-(3-(4-(3,4-difluoro-2-(trifluoromethyl)phenyl)piperidine-1-carbonyl)pyrrolo[3,4-c]pyrazol-5(1H,4H,6H)-yl)propan-1-one], the pIC50 is 7.79 at RBP4 and 7.83 on RBP4-TTR interaction.

As for `O=C(c1n[nH]c2c1CN(CCC(F)(F)F)CC2)N1CCC(c2ccc(F)c(F)c2C(F)(F)F)CC1` [Compound 93, (4-(3,4-difluoro-2-(trifluoromethyl)phenyl)piperidin-1-yl)(5-(3,3,3-trifluoropropyl)-4,5,6,7-tetrahydro-1H-pyrazolo[4,3-c]pyridin-3-yl)methanone], the pIC50 at RBP4 was 8.10; on RBP4-TTR interaction it was 7.47.

With `CNC(=O)N1CCc2[nH]nc(C(=O)N3CCC(c4ccc(F)c(F)c4C(F)(F)F)CC3)c2C1` [Compound 92, 3-(4-(3,4-difluoro-2-(trifluoromethyl)phenyl)piperidine-1-carbonyl)-N-methyl-6,7-dihydro-1H-pyrazolo[4,3-c]pyridine-5(4H)-carboxamide], the pIC50 on RBP4 was 7.99; on RBP4-TTR interaction it was 7.12.

On to `O=C(c1n[nH]c2c1CN(C1COC1)C2)N1CCC(c2ccc(F)c(F)c2C(F)(F)F)CC1` [Compound 98, (4-(3,4-difluoro-2-(trifluoromethyl)phenyl)piperidin-1-yl)(5-(oxetan-3-yl)-1,4,5,6-tetrahydropyrrolo[3,4-c]pyrazol-3-yl) methanone], for which the pIC50 at RBP4 was 7.93; on RBP4-TTR interaction, 7.13.

Consider `CNC(=O)N1CCc2[nH]nc(C(=O)N3CCC(c4cccc(F)c4C(F)(F)F)CC3)c2C1` [Compound 114, 3-(4-(3-Fluoro-2-(trifluoromethyl)phenyl)piperidine-1-carbonyl)-N-methyl-6,7-dihydro-1H-pyrazolo[4,3-c]pyridine-5(4)-carboxamide], for which the pIC50 is 7.99 on RBP4 and 7.39 on RBP4-TTR interaction.

For `COC(=O)N1CCc2[nH]nc(C(=O)N3CCC(c4cc(F)cc(F)c4C(F)(F)F)CC3)c2C1` [Compound 138, Methyl 3-(4-(3,5-difluoro-2-(trifluoro-methyl)phenyl)piperidine-1-carbonyl)-6,7-dihydro-1H-pyrazolo[4,3-c]pyridine-5(4H)-carboxylate], the pIC50 on RBP4 is 7.99; at RBP4-TTR interaction it was 7.61.

Regarding `CCN1CCc2c(C(=O)N3CCC(c4cccc(F)c4C(F)(F)F)CC3)n[nH]c2C1` [Compound 75, (6-Ethyl-4,5,6,7-tetrahydro-1H-pyrazolo[3,4-c]pyridin-3-yl)(4-(3-fluoro-2-(trifluormethyl)phenyl)piperidin-1-yl)methanone], the pIC50 on RBP4 is 8.16; at RBP4-TTR interaction, 7.47.

Turning to `CNC(=O)N1Cc2[nH]nc(C(=O)N3CCC(c4ccc(F)c(F)c4C(F)(F)F)CC3)c2C1` [Compound 100, 3-(4-(3,4-difluoro-2-(trifluoromethyl)phenyl)piperidine-1-carbonyl)-N-methyl-4,6-dihydropyrrolo[3,4-c]pyrazole-5(1H)-carboxamide], the pIC50 was 7.71 on RBP4 and 7.52 at RBP4-TTR interaction.

As for `CC(=O)N1CCc2c(C(=O)N3CCC(c4cc(F)ccc4Cl)CC3)n[nH]c2C1` [Compound 143, 1-(3-(4-(2-chloro-5-fluorophenyl)piperidine-1-carbonyl)-4,5-dihydro-1H-pyrazolo[3,4-c]pyridin-6(7H)-yl)ethanone], the figures for the pIC50 at RBP4 and at RBP4-TTR interaction were 8.05 and 7.28, respectively.

For `CC(C)CC(=O)N1CCc2c(C(=O)N3CCC(c4ccc(F)c(F)c4C(F)(F)F)CC3)n[nH]c2C1` [Compound 123, 1-(3-(4-(3,4-Difluoro-2-(trifluoromethyl)phenyl)piperidine-1-carbonyl)-1,4,5,7-tetrahydro-6H-pyrazolo[3,4-c]pyridin-6-yl)-3-methylbutan-1-one], the pIC50 was 7.82 on RBP4 and 7.28 at RBP4-TTR interaction.

In the case of `CC(=O)N1CCc2c(C(=O)N3CCC(c4cc(C(F)(F)F)cc(C(F)(F)F)c4)CC3)n[nH]c2C1` [Compound 153, 1-(3-(4-(3,5-bis(trifluoromethyl)phenyl)piperidine-1-carbonyl)-4,5-dihydro-1H-pyrazolo[3,4-c]pyridin-6(7H)-yl)ethanone], the figures for the pIC50 at RBP4 and at RBP4-TTR interaction were 6.83 and 6.08, respectively.

As to `O=C(c1n[nH]c2c1CCN(CCC(F)(F)F)C2)N1CCC(c2cccc(F)c2C(F)(F)F)CC1` [Compound 76, (4-(3-Fluoro-2-(trifluoromethyl)phenyl)piperidin-1-yl)(6-(3,3,3-trifluoropropyl)-4,5,6,7-tetrahydro-1H-pyrazolo[3,4-c]pyridin-3-yl)methanone], the pIC50 at RBP4 was 8.13; on RBP4-TTR interaction, 7.71.

In the case of `N#Cc1ccc2nnc(C(=O)N3CCC(c4cc(F)ccc4Cl)CC3)n2c1` [Compound 145, 3-(4-(2-Chloro-5-fluorophenyl)piperidine-1-carbonyl)-[1,2,4]triazolo[4,3-a]pyridine-6-carbonitrile], the results for the pIC50 on RBP4 and on RBP4-TTR interaction were 8.12 and 7.17, respectively.

For `CC(C)CC(=O)N1Cc2[nH]nc(C(=O)N3CCC(c4ccc(F)c(F)c4C(F)(F)F)CC3)c2C1` [Compound 86, 1-(3-(4-(3,4-difluoro-2-(trifluoromethyl)phenyl)piperidine-1-carbonyl)pyrrolo[3,4-c]pyrazol-5(1H, 4H, 6H)-yl)-3-methylbutan-1-one], the pIC50 on RBP4 is 7.71; on RBP4-TTR interaction, 7.56.

Consider `CCN1Cc2[nH]nc(C(=O)N3CCC(c4ccc(F)c(F)c4C(F)(F)F)CC3)c2C1` [Compound 96, (4-(3,4-difluoro-2(trifluoromethyl)phenyl)piperidin-1-yl)(5-ethyl-1,4,5,6-tetrahydropyrrolo[3,4-c]pyrazol-3-yl)methanone], for which the pIC50 was 7.90 at RBP4 and 7.58 at RBP4-TTR interaction.

For `COCCN1CCc2[nH]nc(C(=O)N3CCC(c4ccc(F)c(F)c4C(F)(F)F)CC3)c2C1` [Compound 94, (4-(3,4-difluoro-2-(trifluoromethyl)phenyl)piperidin-1-yl)(5-(2-methoxyethyl)-4,5,6,7-tetrahydro-1H-pyrazolo[4,3-c]pyridin-3-yl)methanone], the pIC50 was 8.16 on RBP4 and 7.30 on RBP4-TTR interaction.

Regarding `N#Cc1ccc2nnc(C(=O)N3CCC(c4c(F)cccc4C(F)(F)F)CC3)n2c1` [Compound 157, 3-(4-(2-fluoro-6-(trifluoromethyl)phenyl)piperidine-1-carbonyl)-[1,2,4]triazolo[4,3-a]pyridine-6-carbonitrile], the pIC50 was 8.23 on RBP4 and 7.04 at RBP4-TTR interaction.

`CC(=O)N1CCc2c(C(=O)N3CCC(c4ccc(F)cc4C(F)(F)F)CC3)n[nH]c2C1` [Compound 158, 1-(3-(4-(4-fluoro-2-(trifluoromethyl)phenyl)piperidine-1-carbonyl)-4,5-dihydro-1H-pyrazolo[3,4-c]pyridin-6(7H)-yl)ethanone]: the pIC50 was 8.06 on RBP4 and 7.43 at RBP4-TTR interaction.

In the case of `O=C(c1n[nH]c2c1CN(C(=O)N1CCNCC1)C2)N1CCC(c2ccc(F)c(F)c2C(F)(F)F)CC1` [Compound 169, (4-(3,4-Difluoro-2-(trifluoromethyl)phenyl)piperidin-1-yl)(5-(piperazine-1-carbonyl)-1,4,5,6-tetrahydropyrrolo[3,4-c]pyrazol-3-yl)methanone], the figures for the pIC50 on RBP4 and at RBP4-TTR interaction were 7.48 and 7.25, respectively.

The values are drawn from US9434727B2, “Substituted 4-phenylpiperidines, their preparation and use” (THE TRUSTEES OF COLUMBIA UNIVERSITY IN THE CITY OF NEW YORK, priority 2014, dated 2016).
